Test results: US11976083B2, “Inhibitors of peptidylarginine deiminases” (Gilead Sciences, Inc., priority 2020, dated 2024)

target: T1, human PAD4 (Homo sapiens, UniProt Q9UM07); assay: In vitro PAD4 BAEE biochemical assay; settings: BAEE substrate 3 mM, 5 nM PAD4, 2 mM calcium chloride; geometric mean of multiple experiments
T1 construct: human PAD4 (NM_012387), A2-P663, was PCR amplified; His-SUMO (N, cleaved yes); made in house; host or cells: E. coli BL21(DE3)
Source text: In Vitro PAD4 BAEE Biochemical Assay
The enzymatic activity of human PAD4 was monitored in a biochemical assay in the presence or absence of compounds using the small peptidyl arginine mimic BAEE (Na-Benzoyl-L-arginine ethyl ester hydrochloride) as substrate. PAD4 activity led to deimination of BAEE and release of ammonia. Levels of ammonia were monitored by using an amine coupling reaction and were indicative of PAD4 enzymatic activity.
One hundred nanoliters of test compounds dissolved in DMSO at various concentrations were dispensed into a 384-well black OptiPlate using a Labcyte Echo instrument. Ten microliters of a solution of recombinant PAD4 and calcium chloride diluted in PAD4 assay buffer (50 mM MOPS [3-(N-morpholino) propanesulfonic acid], pH 7.6; 50 mM sodium chloride; 0.05% Tween-20; 2 mM dithiothreitol) was added to the compound-containing plate and was incubated for 30 minutes at 25° C. Ten microliters of a solution of BAEE (Sigma-Aldrich #B4500) diluted in PAD4 assay buffer was then added to start the reaction. Final concentrations were 5 nM PAD4, 2 mM calcium chloride, and 3 mM BAEE. The reaction mixture was incubated at 25° C. for 2 hours and was stopped with the addition of 10 microliters of a solution of 75 mM EDTA (Ethylenediaminetetraacetic acid) in PAD4 assay buffer. Thirty microliters of detection solution (5 mM o-phthalaldehyde, 50 mM MOPS [3-(N-morpholino) propanesulfonic acid], pH 7.6; 50 mM sodium chloride; 0.05% Tween-20; 5 mM dithiothreitol) was then added and the reaction was incubated for 1 hour at 25° C. The level of fluorescent thiol-substituted isoindole resulting from the reaction of ammonia, o-phthalaldehyde, and dithiothreitol was measured on an Envision plate reader (PerkinElmer) with 405 nm excitation and 535 nm emission.
Data were normalized based on maximum inhibition (50 micromolar of the covalent PAD inhibitor BB-Cl-Amidine (Bicker, K. L.; Anguish, L.; Chumanevich, A. A.; Cameron, M. D.; Cui, X.; Witalison, E.; Subramanian, V.; Zhang, X.; Chumanevich, A. P.; Hofseth, L. J.; Coonrod, S. A.; Thompson, P. R. ACS Med. Chem. Lett. 2012, 3, 1081-1085). and no inhibition (DMSO) controls. Least squares curve fittings were performed using a four-parameter variable slope nonlinear regression model. IC50 is defined as the concentration of compound required to inhibit 50% of maximum activity. IC50 values from multiple experiments were averaged by geometric mean and the standard deviation was calculated.

T1 sequence (Q9UM07 2-663): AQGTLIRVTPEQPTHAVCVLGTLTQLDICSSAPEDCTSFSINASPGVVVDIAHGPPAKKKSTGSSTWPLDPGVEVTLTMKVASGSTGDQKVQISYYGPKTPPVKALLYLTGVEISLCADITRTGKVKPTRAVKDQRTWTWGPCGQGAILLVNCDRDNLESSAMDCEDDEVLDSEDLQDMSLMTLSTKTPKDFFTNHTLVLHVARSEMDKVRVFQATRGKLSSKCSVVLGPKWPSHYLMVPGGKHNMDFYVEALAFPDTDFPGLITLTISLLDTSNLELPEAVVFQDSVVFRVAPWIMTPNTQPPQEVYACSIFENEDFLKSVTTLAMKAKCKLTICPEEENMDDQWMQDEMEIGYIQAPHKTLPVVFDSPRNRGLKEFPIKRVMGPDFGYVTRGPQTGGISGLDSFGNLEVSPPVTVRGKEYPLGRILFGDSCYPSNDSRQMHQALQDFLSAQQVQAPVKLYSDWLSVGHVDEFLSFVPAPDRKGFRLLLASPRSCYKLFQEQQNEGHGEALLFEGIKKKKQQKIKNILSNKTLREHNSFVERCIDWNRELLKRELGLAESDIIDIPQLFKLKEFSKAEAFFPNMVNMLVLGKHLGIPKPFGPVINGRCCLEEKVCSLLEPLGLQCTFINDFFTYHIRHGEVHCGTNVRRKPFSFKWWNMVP

Row | IC50 [nM] | Compound
1 | 27 | CO[C@@H]1CCN(C(=O)c2cc(F)c3c(c2)nc(-c2cc4ccc5nc4n2CCCCCc2cncc(Cl)c2C(=O)N[C@@H]5C)n3C2CC2)C[C@@H]1N [Example 661, (2~{R})-17-[5-[(3~{S),4~ {R})-3-amino-4-methoxy-piperidine-1-carbonyl]-1-cyclopropyl-7-fluoro-benzimidazol-2-yl]-6-chloro-2-methyl-3,8,16,22-tetrazatetracyclo[14.5.2.0^ {5,10).0^{19,23}] tricosa-1(22),5,7,9,17,19(23), 20-heptaen-4-one]
2 | 31 | C[C@H]1NC(=O)c2cnc(Cl)cc2CCCCCn2c(-c3nc4cc(C(=O)N[C@H]5CNCC[C@@H]5F)c(F)cc4n3C3CC3)cc3ccc1nc32 [Example 357, 2-[(2~{R})-8-chloro-2-methyl-4-oxo-3,7,16,22-tetrazatetracyclo[14.5.2.0^{5,10}.0^{19,23}]tricosa-1(22),5,7,9,17,19(23),20-heptaen-17-yl]-1-cyclopropyl-6-fluoro-~ {N}-[(3~{S},4~{S})-4-fluoro-3-piperidyl]benzimidazole-5-carboxamide]
3 | 271 | C[C@H]1NC(=O)C(C)(C)CCCCCCn2c(-c3nc4cc(C(=O)N[C@H]5CNCC[C@@H]5F)cc(Cl)c4n3C)cc3ccc1nc32 [Example 501, 7-chloro-~{N}-[(3~ {S},4~{S})-4-fluoro-3-piperidyl]-1-methyl-2-[(11~{R})-8,8,11-trimethyl-9-oxo-1,10,19-triazatricyclo[10.5.2.0^{15,18}]nonadeca-12(19),13,15(18), 16-tetraen-17-yl] benzimidazole-5-carboxamide]
4 | 87 | Cc1cc2c(cc1C(=O)N[C@H]1CNCC[C@@H]1F)nc(-c1cc3ccc4nc3n1CCCCCCC(C)(C)C(=O)N[C@@H]4C)n2C [Example 537, ~{N}-[(3~{S},4~ {S})-4-fluoro-3-piperidyl]-1,6-dimethyl-2-[(11~{R})-8,8,11-trimethyl-9-oxo-1,10,19-triazatricyclo [10.5.2.0^{15,18}]nonadeca-12(19),13,15(18), 16-tetraen-17-yl]benzimidazole-5-carboxamide]
5 | 661 | COc1cc(C(=O)N2C[C@H](N)C[C@@H](F)[C@@H]2C)cc2nc(-c3cc4ccc5nc4n3CCCCCCC(C)(C)C(=O)N[C@@H]5C)n(C)c12 [Example 795, (11~{R})-17-[5-[(2~{S),3~{R},5~ {R})-5-amino-3-fluoro-2-methyl-piperidine-1-carbonyl]-7-methoxy-1-methyl-benzimidazol-2-yl]-8,8,11-trimethyl-1,10,19-triazatricyclo[10.5.2.0^ {15,18}]nonadeca-12,14,16,18-tetraen-9-one]
6 | 25 | CO[C@@H]1CCN(C(=O)c2cc(F)c3c(c2)nc(-c2cc4ccc5nc4n2CC(F)(F)CCC[C@@H]2C[C@H]2C(=O)N[C@@H]5C)n3[C@@H]2C[C@@H]2F)C[C@@H]1N [Example 746, (2~{R},5~{R},7~{R})-14-[5-[(3~{S),4~{R})-3-amino-4-methoxy-piperidine-1-carbonyl]-7-fluoro-1-[(1~{R},2~{S})-2-fluorocyclopropyl]benzimidazol-2-yl]-11,11-difluoro-2-methyl-3,13,19-triazatetracyclo [11.5.2.0^{5,7}.0^{16,20}] icosa-1(19),14,16(20), 17-tetraen-4-one]
7 | 26 | [2H]C1([2H])CCCC[C@@H]2C[C@H]2C(=O)N[C@H](C)c2ccc3cc(-c4nc5cc(C(=O)N6C[C@H](N)[C@@H]7CC[C@H]6C7)cc(F)c5n4C4CC4)n1c3n2 [Example 482, (2~{R},5~{R},7~{R})-14-[5-[(1~{S},4~{R},5~{R})-4-amino-2-azabicyclo[3.2.1]octane-2-carbonyl]-1-cyclopropyl-7-fluoro-benzimidazol-2-yl]-12,12-dideuterio-2-methyl-3,13,19-triazatetracyclo[11.5.2.0^{5,7}.0^{16,20}] icosa-1(19),14,16(20),17-tetraen-4-one]
8 | 82 | COc1cc(C(=O)N2C[C@H](N)[C@@H]3CC[C@H]2C3)cc2nc(-c3cc4ccc5nc4n3CCCCCc3nc(C(F)(F)F)ccc3C(=O)N[C@@H]5C)n(C3CC3)c12 [Example 847, (2~{R})-17-[5-[(1~{S},4~{R}, 5~{R})-4-amino-2-azabicyclo [3.2.1]octane-2-carbonyl]-1-cyclopropyl-7-methoxy-benzimidazol-2-yl]-2-methyl-8-(trifluoromethyl)-3,9,16,22-tetrazatetracyclo[14.5.2.0^ {5,10}.0^{19,23}]tricosa-1(22),5(10),6,8,17,19(23),20-heptaen-4-one]
9 | 62 | CO[C@@H]1CCN(C(=O)c2cc(F)c3c(c2)nc(-c2cc4ccc5nc4n2CC(F)(F)/C=C/C[C@@H]2C[C@H]2C(=O)N[C@@H]5C)n3C)C[C@@H]1N [Example 739]
10 | 82 | COc1cc(C(=O)N2[C@H]3CC[C@@H]2[C@H](N)C3)cc2nc(-c3cc4ccc5nc4n3CCCCCCC3(CC3)C(=O)N[C@@H]5C)n(C)c12 [Example 279, (11~{R})-17-[5-[(1~{R},2~{R},4~{S})-2-amino-7-azabicyclo[2.2.1]heptane-7-carbonyl]-7-methoxy-1-methyl-benzimidazol-2-yl]-11-methyl-spiro[1,10,19-triazatricyclo[10.5.2.0^{15,18}]nonadeca-12(19),13,15(18),16-tetraene-8,1′-cyclopropane]-9-one]
11 | 54 | COc1cc(C(=O)N2[C@H]3CC[C@@H]2[C@H](N)C3)cc2nc(-c3cc4ccc5nc4n3CCCCn3nccc3C(=O)N[C@@H]5C)c(C)n12 [Example 34, (2~{R})-15-[7-[(1~{R},2~{R},4~{S})-2-amino-7-azabicyclo[2.2.1]heptane-7-carbonyl]-5-methoxy-3-methyl-imidazo[1,2-a]pyridin-2-yl]-2-methyl-3,8,9,14,20-pentazatetracyclo[12.5.2.0^{5,9}.0^{17,21}] henicosa-1(20),5,7,15,17(21),18-hexaen-4-one]
12 | 385 | COc1cc(C(=O)N2[C@H]3CC[C@@H]2[C@H](N)C3)cc2nc(-c3cc4ccc5nc4n3CCCCCCOc3ccccc3C(=O)N[C@@H]5C)c(C)n12 [Example 213, (2~{R})-19-[7-[(1~{R},2~{R},4~{S})-2-amino-7-azabicyclo[2.2.1]heptane-7-carbonyl]-5-methoxy-3-methyl-imidazo[1,2-a]pyridin-2-yl]-2-methyl-11-oxa-3,18,24-triazatetracyclo[16.5.2.0^{5,10}.0^ {21,25}]pentacosa-1(24),5(10),6,8,19,21(25),22-heptaen-4-one]
13 | 52 | COc1cc(C(=O)N2CC[C@@H](OC)[C@@H](N)C2)cc2nc(-c3cc4ccc5nc4n3CCCCCc3ccncc3C(=O)N[C@@H]5C)n(C)c12 [Example 649, (2~{R})-17-[5-[(3~{S), 4~{R})-3-amino-4-methoxy-piperidine-1-carbonyl]-7-methoxy-1-methyl-benzimidazol-2-yl]-2-methyl-3,7,16,22-tetrazatetracyclo[14.5.2.0^ {5,10}.0^{19,23}] tricosa-1(22),5,7,9,17,19(23), 20-heptaen-4-one]
14 | 39 | C[C@H]1NC(=O)C2C[C@H]2CCCCCn2c(-c3nc4cc(C(=O)N5CCC[C@@H](N)C5)cc(Cl)c4n3C)cc3ccc1nc32 (stereo partly drawn) [Example 506, (2~{R},7~{R})-14-[5-[(3~ {R})-3-aminopiperidine-1-carbonyl]-7-chloro-1-methyl-benzimidazol-2-yl]-2-methyl-3,13,19-triazatetracyclo[11.5.2.0^ {5,7}.0^{16,20}]icosa-1(19), 14,16(20),17-tetraen-4-one]
15 | 16 | C[C@@H]1[C@H](N)CCCN1C(=O)c1cc(F)c2c(c1)nc(-c1cc3ccc4nc3n1CC(F)(F)CCC[C@@H]1C[C@H]1C(=O)N[C@@H]4C)n2[C@H]1C[C@@H]1F [Example 835, (2~{R},5~{R},7~{R})-14-[5-[(2~{R},3~{R})-3-amino-2-methyl-piperidine-1-carbonyl]-7-fluoro-1-[(1~{S},2~{S})-2-fluorocyclopropyl]benzimidazol-2-yl]-11,11-difluoro-2-methyl-3,13,19-triazatetracyclo[11.5.2.0^ {5,7}.0^{16,20}] icosa-1(19),14,16(20), 17-tetraen-4-one]
